According to patent US3948886A, “6-Substituted purine 3',5'-cyclic nucleotides” (ICN Pharmaceuticals, Inc., priority 1973, dated 1976):

What was measured:
[1] = system: cyclic AMP-dependent protein kinase; test: Activation of bovine brain cyclic AMP-dependent protein kinase; type: biochemical; conditions: pH 6, relative to cyclic AMP
Protocol: Cyclic AMP-dependent protein kinase was purified to the stage of DEAE cellulose chromatography from bovine brain using the procedure of Miyamoto et al., J. Biol. Chem. 244, 6395 (1969). Protein kinase activity was assayed by measuring the incorporation of ^32 P-phosphate into histone from γ-^32 P labeled ATP. The incubation mixture contained (amounts in μmoles): sodium glycerol phosphate buffer, pH 6, 10; γ-^32 P-ATP, ~2 × 10^6 cpm, 0.001; magnesium acetate, 2; sodium fluoride, 2; EDTA, 0.06; histone, 40 - 400 μg; cAMP, cGMP or analog as indicated; purified protein kinase, 5 - 25 μg in a final volume of 0.2 ml. Activation constants (Ka) were determined according to the procedure of Muneyama et al., supra. The Ka values relative to cyclic AMP (Ka') are reported in Table IV and compared to Ka' for compound 6.

L-929 cells = test: Interferon potentiation in vitro with L-929 cells; type: cell-based
[2] = system: cyclic AMP phosphodiesterase; test: Resistance to phosphodiesterase (PDE) degradation; type: biochemical; conditions: rabbit kidney PDE, pH 7.5, 37°C
Herpes virus Type 1 = test: Antiviral activity, virus rating (VR) method, Herpes Type 1; type: cell-based; conditions: virus rating (VR) method of Sidwell et al.
Source text: (§1) Tested according to the virus rating (VR) method of Sidwell et al., Proc. Soc.

Herpes virus Type 2 = test: Antiviral activity, virus rating (VR) method, Herpes Type 2; type: cell-based; conditions: virus rating (VR) method of Sidwell et al.
Source text: as §1

adenyl cyclase = test: Adenyl cyclase inhibition (guinea pig lung particulate fraction); type: biochemical; conditions: guinea pig lung particulate enzyme fraction, 1.2 mM ATP, pH 7.8, 15 min at 37°; read-out: I50 (concentration required for 50% enzyme inhibition)
Protocol: Lunt alveolar tissue was obtained from normal guinea pigs. The tissue was minced and a Duall tissue grinder was used to prepare a 20% homogenate in chilled buffer containing 1 mM MgCl 2 and 2 mM glycylglycine, pH 7.5 (F. Murad et al., J. Biol. Chem. 237: 1233, 1962). The homogenate was strained through four layers of gauze and centrifuged at 1000xg for 15 min at 4°. The pellet was resuspended in the original volume of buffer and recentrifuged. The pellet was again resuspended in buffer and 0.5 - 1.0 ml aliquots were sealed in ampoules and stored under liquid nitrogen for future assay of adenylate cyclase activity. […] Protein was determined by the method of Lowry et al., J. Biol. Chem. 193: 265, 1951, with crystalline bovine serum albumin as standard.
Adenylate cyclase activity was assayed in duplicate by a modification of previously published methods (G. Krishna et al., J. Pharmacol. Exp. Therap. 163: 379, 1968; G. S. Levey and S. E. Epstein, Circ. Res. 24: 151, 1969). The total assay volume was 0.59 ml and contained 1.8 mM MgCl2, 0.8 mM glycylglycine, 32 mM Tris (pH 7.8), 1.2 mM ATP, 3-5×10^6 cpm [α-^32 P] ATP, and particulate enzyme fraction (100-150 μg. lung protein). Concentrated solutions of compounds to be tested were prepared fresh daily by dissolution in water, ethanol, or dimethyl sulfoxide; 5-10 μl of the solution was added to the incubation mixture to give the desired final concentration. Control assays (without compound) contained solvent alone.
The incubation mixture was reacted for 15 min at 37° in a shaker, and then boiled for 3 min to inactivate the cyclase. One hundred μl of a solution containing 4 μmoles ATP, 1.25 μmoles cyclic AMP, and 0.15μCi [^3 H] cyclic AMP was added to the reaction mixture. […] After centrifugation, 1 ml of supernatant containing [^32 P] cyclic AMP and [^3 H] cyclic AMP was mixed with 15 ml of scintillator (100 g naphthalene, 14 g PPO, and 0.1 g dimethyl POPOP per 2 l dioxane) and counted. […]

Rhino viruses = test: Antiviral activity, virus rating (VR) method, Rhino viruses; type: cell-based; conditions: virus rating (VR) method of Sidwell et al.
Source text: as §1

[3] = system: 6-methylthio-purine riboside-resistant Ehrlich carcinomas; test: Growth inhibition of surgically implanted Ehrlich carcinomas in mice; type: in vivo; conditions: intraperitoneally, 83 μmoles/Kg

SMILES	Ka' (= Ka, cyclic AMP/Ka analog) [1]	interferon potentiation (L-929 cells)	rate of analog hydrolysis relative to cyclic AMP (α) [2]	activity against Herpes virus Type 1 (Herpes virus Type 1)	activity against Herpes virus Type 2 (Herpes virus Type 2)	IC50 (adenyl cyclase) [µM]	activity against Rhino viruses (Rhino viruses)	inhibition of growth of Ehrlich carcinomas [3]
O=P1(O)OC[C@H]2O[C@@H](n3cnc4c(=S)[nH]cnc43)[C@H](O)[C@@H]2O1 [Compound 6, 9-β-D-Ribofuranosylpurin-6-thione 3', 5'-cyclic phosphate, reference compound]	0.56	did not	1.06					
CSc1ncnc2c1ncn2[C@@H]1O[C@@H]2COP(=O)(O)O[C@H]2[C@H]1O [Compound 7a, 6-Methylthio-9-β-D-ribofuranosylpurine 3', 5'-cyclic phosphate]	1.45	marked interferon potentiation	0.41	exhibited activity	exhibited activity	340		
CCSc1ncnc2c1ncn2[C@@H]1O[C@@H]2COP(=O)(O)O[C@H]2[C@H]1O [Compound 7b, 6-Ethylthio-9-β-D-ribofuranosylpurine 3', 5'-cyclic phosphate]	2.0	marked interferon potentiation	0.57	exhibited activity		1000	exhibited activity	
O=P1(O)OC[C@H]2O[C@@H](n3cnc4c(SCc5ccccc5)ncnc43)[C@H](O)[C@@H]2O1 [Compound 7c, 6-Benzylthio-9-β-D-ribofuranosylpurine 3', 5'-cyclic phosphate]	1.25		0.54		exhibited activity	7000		inhibited growth
